This is an account of results in US20250205248A1, “REPURPOSING VARENICLINE AS AN ANTI-INFLAMMATORY AGENT WITH ITS SUPPRESSOR EFFECTS ON INFLAMMATORY CYTOKINES” (IZMIR EKONOMI UNIVERSITESI, priority 2022, published 2025).

The subject of test [1] is RAW 264.7 murine macrophage cells. The test can be described thus: LPS-induced macrophage migration. Type of test: cell-based. The method, then: (§1) Here, in the application subject invention, the anti-inflammatory potential of varenicline, which is used in the treatment of smoking cessation, was determined for the first time by suppressing increased cytokine levels in inflammatory conditions. According to the current study, the anti-inflammatory activity of varenicline is not limited to its suppression of cytokine levels, but is also associated with suppressed proliferation and macrophage migration rates (FIGS. 4A-6C).
FIGS. 5A-5B. Effects of varenicline on LPS-induced cell migration in the presence or absence of nAChR antagonists
(§2) This invention points out repurposing of varenicline and provides mechanical insights about the effects of varenicline on α7nAChR-mediated activation of cholinergic anti-inflammatory pathway (CAP), cell proliferation, and migration in the in vitro inflammation model induced by LPS.

A further test deals with RAW 264.7 macrophages. The test is described as follows: LPS-induced cytokine and chemokine panel in RAW 264.7 macrophages. Type of test: cell-based, mouse. The protocol: FIGS. 6A-6C. Effects of varenicline on LPS-induced 14 mouse cytokines levels in RAW 264.7 macrophages.
(§3) Antagonist drugs was applied 30 minutes before varenicline and LPS applications. Thus, the role of α7nAChRs and activation of the cholinergic anti-inflammatory pathway was determined at the end of 24-hour protocol by examining LPS-induced inflammatory cytokine levels (IL-1β, IL-6 and TNFα) in addition to 40 different cytokines and chemokines.
(§4) The results are as follows for the application of the invention. (1) Cytokine levels (IL-1β, IL-6 and TNFα) examined by the ELISA method were increased at the end of 24-hour protocol after induced by LPS in RAW 264.7 cells.

Test [2] has as its system emphysema induced by porcine pancreatic elastase. The note with it: mice, PPE emphysema, cited from earlier work.
Test [3] relates to RAW 264.7 murine macrophage cells. The test is described as follows: LPS-induced cell proliferation. Type of test: cell-based. The method, then:
as §1
FIGS. 4A-4B. Effects of varenicline on LPS-induced cell proliferation in the presence or absence of nAChR antagonists.
as §2

The target of the next test is α7nAChRs (Homo sapiens, UniProt P36544). Particulars: cited from earlier work.
α7nAChRs, sequence (P36544 23-502): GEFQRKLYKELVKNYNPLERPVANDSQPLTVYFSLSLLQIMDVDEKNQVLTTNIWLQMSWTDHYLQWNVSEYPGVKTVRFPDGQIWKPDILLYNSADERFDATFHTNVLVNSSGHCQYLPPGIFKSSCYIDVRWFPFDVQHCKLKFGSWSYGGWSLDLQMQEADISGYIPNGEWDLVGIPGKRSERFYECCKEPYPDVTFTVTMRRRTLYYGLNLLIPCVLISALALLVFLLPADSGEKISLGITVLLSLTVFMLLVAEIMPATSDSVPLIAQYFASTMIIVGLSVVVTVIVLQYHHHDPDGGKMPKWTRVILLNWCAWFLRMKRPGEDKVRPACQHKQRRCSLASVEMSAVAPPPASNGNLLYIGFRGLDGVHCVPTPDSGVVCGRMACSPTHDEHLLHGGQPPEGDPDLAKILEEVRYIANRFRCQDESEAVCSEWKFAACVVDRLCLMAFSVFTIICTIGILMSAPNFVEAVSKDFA
For another test, the target named is α4β2nAChRs (Homo sapiens, UniProt P17787+P43681). Particulars: central nervous system; cited from earlier work.
α4β2nAChRs, sequence (P43681 29-627 limits assumed): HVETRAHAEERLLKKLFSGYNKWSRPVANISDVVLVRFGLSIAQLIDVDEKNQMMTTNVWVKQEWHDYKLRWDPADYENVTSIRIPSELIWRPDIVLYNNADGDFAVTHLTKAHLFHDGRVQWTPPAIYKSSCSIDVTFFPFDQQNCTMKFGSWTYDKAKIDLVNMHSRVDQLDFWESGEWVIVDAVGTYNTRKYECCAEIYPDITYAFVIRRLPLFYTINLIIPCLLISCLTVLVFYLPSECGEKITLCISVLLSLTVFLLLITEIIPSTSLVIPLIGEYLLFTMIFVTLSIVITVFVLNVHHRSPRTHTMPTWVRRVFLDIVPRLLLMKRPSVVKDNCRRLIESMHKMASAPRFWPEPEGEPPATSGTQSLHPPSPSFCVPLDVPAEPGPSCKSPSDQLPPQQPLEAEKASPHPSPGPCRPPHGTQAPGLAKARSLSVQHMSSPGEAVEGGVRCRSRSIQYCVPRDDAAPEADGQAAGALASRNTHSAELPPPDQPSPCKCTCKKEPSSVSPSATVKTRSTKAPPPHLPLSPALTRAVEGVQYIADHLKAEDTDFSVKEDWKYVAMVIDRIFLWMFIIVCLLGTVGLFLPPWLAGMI
α4β2nAChRs, sequence (P17787 26-502): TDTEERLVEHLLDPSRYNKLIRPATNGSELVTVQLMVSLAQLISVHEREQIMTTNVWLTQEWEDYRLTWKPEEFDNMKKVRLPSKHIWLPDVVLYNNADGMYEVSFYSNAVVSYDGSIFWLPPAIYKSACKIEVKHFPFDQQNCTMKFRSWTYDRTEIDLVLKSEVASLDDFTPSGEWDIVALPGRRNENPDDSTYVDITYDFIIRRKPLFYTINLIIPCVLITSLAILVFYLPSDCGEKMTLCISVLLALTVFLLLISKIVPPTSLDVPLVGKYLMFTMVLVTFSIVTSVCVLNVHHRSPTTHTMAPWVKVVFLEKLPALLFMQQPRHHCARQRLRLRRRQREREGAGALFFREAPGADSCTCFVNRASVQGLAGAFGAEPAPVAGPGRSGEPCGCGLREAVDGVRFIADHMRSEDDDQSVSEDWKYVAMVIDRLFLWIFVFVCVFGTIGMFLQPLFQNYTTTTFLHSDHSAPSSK
For test [4], the system named is transient middle cerebral artery ischemia model. The note with it: mice, treatment for one week, cited from earlier work.
In a further test the test system is smokers. The note with it: 3 months of treatment; cited from earlier work.
Test [5] deals with RAW 264.7 murine macrophage cells. The test can be described thus: LPS-induced inflammatory cytokine levels (IL-1β, IL-6, TNFα) by ELISA in RAW 264.7 cells. The format is cell-based. The note with it: for IL-1β level in presence of nAChR antagonist / IL-6 level in presence of nAChR antagonist / TNFα level in presence of nAChR antagonist: antagonist 30 minutes before varenicline and LPS, compared to varenicline-treated groups. The protocol: RAW 264.7 murine macrophage cells maintained in culture media supplemented with heat inactivated FBS (10%) and penicillin (100 U/ml) and streptomycin (100 μg/ml) at 37° C. in a 5% CO2 incubator were used during the experimental studies. The cells (500,000/well) were seeded in 48-well culture plates after detachment with scraping incubated for 24 h in serum-free media for reattachment to the surface. In the first group, the cells were treated with LPS at increasing concentrations to determine the effective concentration at which cytokines are released. In the second group, the cells were pretreated with varenicline tartarate with increasing concentrations in presence of LPS to determine effective varenicline concentration on LPS-induced cytokine levels. Additionally, the anti-inflammatory effect of varenicline was compared with that of dexamethasone. In the third group, a non-selective nicotinic ACh receptor antagonist mecamylamine hydrochloride and a selective α7nAChR antagonist methyllycaconitine citrate were applied prior to varenicline and LPS administration in order to investigate the involvement of nicotinic receptors.
The inflammatory response of macrophage cells was evaluated by the change in inflammatory cytokine levels (IL-1β, IL-6 and TNFα) after 24 hours. In other groups where the effect of varenicline will be investigated, the LPS concentration, which triggers the increase in all cytokines determined in the first group and employed for the induction of inflammatory response. Increasing concentrations of varenicline were administered 30 minutes before LPS administration, LPS-induced cytokine levels were analyzed at the end of 24-hour protocol and the effective concentration on cytokine levels were determined in the second group. The effective concentration of varenicline was used in the third group in which the receptor-mediated effects investigated.
as §3, §4

In test [6] the test system is RAW 264.7 macrophage cells stimulated with LPS. The note with it: via α7nAChR activation; LPS-stimulated RAW 264.7; cited from earlier work.
Test [7] has as its system LPS-activated RAW264.7 macrophage cell cultures. Particulars: cited from earlier work.
The next test relates to sepsis. Particulars: cited from earlier work.
[8] abbreviates: varenicline 30 minutes before LPS, 24-hour protocol, compared to the LPS group.

Counter-ions that a name gives are not always drawn.

For `c1cnc2cc3c(cc2n1)[C@@H]1CNC[C@H]3C1` [Varenicline, varenicline], the macrophage migration rate entry in test [1] is given as “suppressed”. Moreover, the “LPS-induced 14 different cytokines and chemokines (G-CSF, GM-CSF, IL-1, IL-6, IL-27, IL-1ra, IP-10, MCP-1, MIP-1, RANTES, TNF α)” value in the test with RAW 264.7 macrophages is “significantly decreased”. Also, the inflammation entry in test [2] (immunohistochemical analysis) was “reduce”. In addition, in test [2] (with activation of α7nAChR), the “number of T cells in tissue” value was “significantly reduced”, the “number of macrophages in tissue” value is “significantly reduced” and the “number of neutrophils in tissue” value is “significantly reduced”. The proliferation rate result in test [3] is “suppressed”. Further, the “effect on α7nAChRs” value at α7nAChRs was “potent and complete agonist”. Moreover, at α4β2nAChRs, the “effect on α4β2nAChRs” value was “partial agonistic effect”. For the same molecule, the “use of damaged forelimbs” value in test [4] was “increased”. Also, the “inflammation in the corpus striatum” value in [4] (immunohistochemical analysis) is recorded as “decreased”. In the test on smokers, the atherosclerosis result is recorded as “reduced”, the endothelial damage result is recorded as “reduced” and the oxidative stress result is reported as “reduced”. Also, in [5] (setting [8]), the IL-1β level result is given as “significantly decreased”, the IL-6 level result is given as “significantly decreased” and the TNFα level result was “significantly decreased”.
As to `CN1CCCC1c1cccnc1` (stereo not shown) [nicotine], the TNFα levels result in [6] is reported as “decrease”.
For the molecule `CNC1(C)C2CCC(C2)C1(C)C` (stereo not shown) [MEC, mecamylamine hydrochloride], in [5], the “IL-1β level in presence of nAChR antagonist” value is given as “significantly increased”, the “IL-6 level in presence of nAChR antagonist” value was “significantly increased” and the “TNFα level in presence of nAChR antagonist” value was “significantly increased”.
For methyllycaconitine citrate [MLA], in [5], the “IL-1β level in presence of nAChR antagonist” value is listed as “significantly increased”, the “IL-6 level in presence of nAChR antagonist” value is reported as “significantly increased” and the “TNFα level in presence of nAChR antagonist” value is given as “significantly increased”.
Take `COc1ccc(/C=C2\CCCN=C2c2cccnc2)c(OC)c1` [GTS-21]: in test [7], the HMGB-1 level result is “significantly reduces” and the TNFα level result was “significantly reduces”. Further, in the test with sepsis, the “cytokine levels that increased due to inflammation” value is listed as “decreased” and the “life span of experimental animals” value is recorded as “extended”.
